Data: patent publication US10214564B2, “Antimicrobial peptides derived from hepatitis B virus core protein arginine-rich domain” (priority 2013, dated 2019)
Where two headings read alike, the source gives them in different places. Where no end group is shown, it is not given here.

Legend:
[1] = test system: tested bacteria and fungi; assay type: cell-based; settings: for bacteria; serine-phosphorylated peptides
Description: (§1) The antimicrobial activities of HBc ARD peptides were tested on numerous bacterial strains from ATCC, including Pseudomonas aeruginosa Migula strain (ATCC 27853, ampicillin-resistant), Pseudomonas aeruginosa Migula strain (ATCC 9027, ampicillin-resistant), Klebsiella pneumoniae strain (ATCC 17593), Escherichia coli strain (ATCC 25922), Staphylococcus aureus subsp. strain (ATCC 25923, methicillin-resistant), Staphylococcus aureus subsp. strain (ATCC29213, methicillin-resistant), Staphylococcus aureus subsp. strain (ATCC 19636, methicillinresistant), and Candida albicans strain (ATCC 10231).
(§2) All peptides were purchased from Yao-Hong Biotechnology Inc. (Taipei, Taiwan). Vendors provided data of peptide characterizations, including HPLC and Mass. Antimicrobial activity was determined as described with some modifications as detailed below. Bacteria were grown overnight in Mueller-Hinton broth (Difeo) at 37° C., and during the mid-logarithmic phase, bacteria were diluted to 10^6 CFU (colony formation unit)/ml in phosphate buffer (10 mM sodium phosphate and 50 mM sodium chloride, pH 7.2). Peptides were serially diluted in the same buffer. Fifty microliter (μl) of bacteria was mixed with fifty μl of peptides at varying concentrations followed by incubation at 37° C. for 3 hours without shaking. […]

E. coli = assay type: cell-based, Escherichia coli; settings: for Minimal bactericidal concentration: E. coli ATCC 25922
Description: as §1
(§3) All peptides were purchased from Yao-Hong Biotechnology Inc. (Taipei, Taiwan). Vendors provided data of peptide characterizations, including HPLC and Mass. Antimicrobial activity was determined as described with some modifications as detailed below. Bacteria were grown overnight in Mueller-Hinton broth (Difeo) at 37° C., and during the mid-logarithmic phase, bacteria were diluted to 10^6 CFU (colony formation unit)/ml in phosphate buffer (10 mM sodium phosphate and 50 mM sodium chloride, pH 7.2). Peptides were serially diluted in the same buffer. Fifty microliter (μl) of bacteria was mixed with fifty μl of peptides at varying concentrations followed by incubation at 37° C. for 3 hours without shaking. At the end of incubation, bacteria were placed on Mueller-Hinton broth agar plates, and allowed growth at 37° C. overnight for measurement of minimal bactericidal concentration (MBC). […] All peptides were tested in triplicate.

P. aeruginosa = assay type: cell-based, Pseudomonas aeruginosa
Description: as §1
(§4) Clinical isolates of Pseudomonas aeruginosa (NHRI-01, NHRI-02 AND NHRI-04) were obtained through the program of Taiwan Surveillance of Antimicrobial Resistance, National Health Research Institutes, Taiwan, Acinetobacter baumannii (ATCC 17989, ATCC 17978 CR, ATCC19606, ATCC 19606 CR, TCGH 45530 AND TCGH 46709) were obtained from Tzu-Chi Buddhist General Hospital in Taiwan, and clinical isolates (TCGH 1 45530 AND TCGH 46709) were identified using the Vitek system (Biomerieux Vitek, Inc., MO, USA). A. baumannii is defined as multidrug-resistant when the organism is resistant to piperacillin, piperacillin-tazobactam, ampicillin/sulbactam, imipenem, ceftazidime, gentamicin, amikacin, tetracycline, chloramphenicol, ciprofloxacin, and cotrimoxazole. Susceptibility to colistin was determined using the broth-dilution method, in accordance with the guidelines of the Clinical and Laboratory Standards Institute.
as §2, with “buffer.” for “buffer. Fifty microliter (μl) of bacteria was mixed with fifty μl of peptides at varying concentrations followed by incubation at 37° C. for 3 hours without shaking.”

K. pneumoniae = assay type: cell-based, Klebsiella pneumoniae; settings: for Minimal bactericidal concentration: K. pneumoniae ATCC 13884
Description: as §1, §3

S. aureus = assay type: cell-based, Staphylococcus aureus; settings: for Minimal bactericidal concentration: S. aureus ATCC 19636
Description: as §1, §3

human red blood cells = assay: Hemolytic activity; assay type: cell-based; settings: 10% hRBCs, one hour of incubation
Description: (§5) (A) Hemolytic activities of HBc147-183 and melittin were measured with 10% human red blood cells (RBC). […] (B) Huh7, HepG2, Vero and HEK293 cells were incubated with varying concentrations (0 to 100 μM) of HBc147-183 and melittin for 1 hour at 37° C. The effects on cell viability were determined by MTT assay. Melittin was used as a positive control. […] (C) Kidney cells, Vero and HEK293 were stained with CFSE and seeded at day 0. At day 1, cells were incubated with varying concentrations (0 to 100 μM) of HBc147-183 for 1 hour. Cell proliferation at day 1 and day 3 were determined by flow cytometry. […] Samples assayed in FIGS. 7A-C were measured in triplicates. (D) (D) In vivo toxicity of ARD peptide HBc147-183 was determined using three-week old male ICR mice. The mice were injected intraperitoneally with peptide (10 and 20 mg/kg of body weight).
The hemolytic activities of peptides were determined by hemolysis against human red blood cells (hRBCs). Human blood was obtained in EDTA-containing tube and was centrifuged at 450 g for 10 min. […] After centrifugation at 450 g for 10 min, the percentage of hemolysis was determined by measuring the absorbance at the wavelength of 405 nm of the supernatant. Blank and 100% hemolysis were determined in PBS buffer and in the presence of 1% Triton X-100, respectively.

C. albicans = assay type: cell-based, Candida albicans
Description: as §1, §2

Vero and HEK293 cells = assay: CFSE cell proliferation assay; assay type: cell-based, human, monkey; settings: 5, 25 and 100 μM for 1 hour, day 3 vs day 1
Description: as §5
To set up CFSE cell proliferation assay, 293 cells (human kidney origin) and Vero cells (monkey kidney origin) were resuspended in PBS to a final concentration of 10^6 cells/ml before incubation with 10 μM CFSE dye (CELLTRACE™ CFSE cell proliferation kit, INVITROGEN™) at 37° C. for 10 min. To quench the staining, ice-old culture media were then added and incubated on ice for 5 min. […] Forty-eight hours later, cells were harvested and analyzed by flow cytometry (FACSCanto, BD Bioscience).

ICR mice = assay: In vivo acute toxicity
Description: as §5
Three-week old male ICR mice (19 to 21 g) were purchased from BioLASCO (Taiwan) Overnight culture of bacteria in BHI broth (Difco) was subcultured in fresh BRI broth to log phase. Inoculums were diluted in BHI broth to indicated densities. To test the acute toxicity of ARD peptide in vivo, ICR male mice were inoculated intraperitoncally (i.p.) with 10 and 20 mg/kg HBc147-183 in PBS, respectively. […] After peptide injection, the number of dead mice was recorded daily for 7 days post-injection. […] Mortality was monitored daily for 7 days post-inoculation. […]

[2] = test system: Huh7, HepG2, Vero and HEK293 cells; assay: Cytotoxicity, MTT assay; assay type: cell-based, human, monkey; settings: for effect on cell viability: 0 to 100 μM, 1 hour at 37° C.
Description: as §5
Cytotoxicity was measured in HepG2, Huh7, HEK293, and Vero cells by MTT assay. Cells were seeded at 10^4 cells/well in a 96-well plate and serial dilutions of peptides were added into each well. PBS was used as a negative control and melittin was used as a positive control. After 1 hour of incubation, the medium were replaced by a fresh medium containing 10% MTT solution (PROMEGA™), and the plate was incubated for 4 hours in 5% CO2 at 37° C., The absorbance at the wavelength a 595 nm was measured by an ELISA reader (BIO-RAD™ model 680).

A. baumannii = assay type: cell-based, Acinetobacter baumannii
Source text: as §4
All peptides were purchased from Yao-Hong Biotechnology Inc. (Taipei, Taiwan). Vendors provided data of peptide characterizations, including HPLC and Mass. Antimicrobial activity was determined as described with some modifications as detailed below. […]

Compound: CC(C)[C@H](NC(=O)[C@@H](NC(=O)[C@@H](N)[C@@H](C)O)C(C)C)C(=O)N[C@@H](CCCNC(=N)N)C(=O)N[C@@H](CCCNC(=N)N)C(=O)N[C@@H](CCCNC(=N)N)C(=O)NCC(=O)N[C@@H](CCCNC(=N)N)C(=O)N[C@@H](COP(=O)(O)O)C(=O)N1CCC[C@H]1C(=O)N[C@@H](CCCNC(=N)N)C(=O)N[C@@H](CCCNC(=N)N)C(=O)N[C@@H](CCCNC(=N)N)C(=O)N[C@H](C(=O)N1CCC[C@H]1C(=O)N[C@@H](COP(=O)(O)O)C(=O)N1CCC[C@H]1C(=O)N[C@@H](CCCNC(=N)N)C(=O)N[C@@H](CCCNC(=N)N)C(=O)N[C@@H](CCCNC(=N)N)C(=O)N[C@@H](CCCNC(=N)N)C(=O)N[C@@H](CO)C(=O)N[C@@H](CCC(N)=O)C(=O)N[C@@H](COP(=O)(O)O)C(=O)N1CCC[C@H]1C(=O)N[C@@H](CCCNC(=N)N)C(=O)N[C@@H](CCCNC(=N)N)C(=O)N[C@@H](CCCNC(=N)N)C(=O)N[C@@H](CCCNC(=N)N)C(=O)N[C@@H](CO)C(=O)N[C@@H](CCC(N)=O)C(=O)N[C@@H](CO)C(=O)N[C@@H](CCCNC(=N)N)C(=O)N[C@@H](CCC(=O)O)C(=O)N[C@@H](CO)C(=O)N[C@@H](CCC(N)=O)C(=O)N[C@@H](CS)C(=O)O)[C@@H](C)O [HBc155p162p170p]
- MBC [1]: > 32 µM

Compound: TVIRRRGGARASRSPRRRTPSPRRRRSQSPRRRRSQSPSANC [wHBc ARD]
- Minimal bactericidal concentration (E. coli): 4 µM
- Minimal bactericidal concentration (P. aeruginosa; P. aeruginosa ATCC 9027): 2 µM
- Minimal bactericidal concentration (P. aeruginosa; P. aeruginosa ATCC 27853): 2 µM
- Minimal bactericidal concentration (K. pneumoniae): 2 µM
- Minimal bactericidal concentration (S. aureus): 8 µM

Compound: TVVRRRGRSPRRRTPSPRRRRSQSPRRRRSQSRESQC [HBc147-183]
- hemolysis (human red blood cells): no detectable hemolysis
- MBC (C. albicans): ~8 µM
- effect on cell proliferation (Vero and HEK293 cells): no significant effect
- in vivo toxicity (ICR mice; 20 mg/kg i.p.): no apparent in vivo toxicity
- survival after peptide injection (ICR mice; 10 and 20 mg/kg intraperitoneally, 7 days): All mice were alive
- Minimal bactericidal concentration (E. coli): 4 µM
- MBC (E. coli; E. coli, strain not given): around 4 μM
- effect on cell viability [2]: no detectable effect
- cytotoxicity ([2]; 100 μM, 1 hour): only a low level of cytotoxicity
- MBC (P. aeruginosa; colistin-resistant P. aeruginosa): > 16 µM
- MBC (A. baumannii): 0.5 to 1 µM
- MBC (A. baumannii; colistin-resistant A. baumannii): 0.5 to 1 µM
- MBC (K. pneumoniae; K. pneumonia, strain not given): lower than 4 μM
- Minimal bactericidal concentration (K. pneumoniae): 2 µM
- Minimal bactericidal concentration (S. aureus): 4 µM
- MBC (S. aureus; S. aureus, strain not given): around 4 μM

Compound: CC[C@H](C)[C@H](NC(=O)CN)C(=O)NCC(=O)N[C@@H](C)C(=O)N[C@H](C(=O)N[C@@H](CC(C)C)C(=O)N[C@@H](CCCCN)C(=O)N[C@H](C(=O)N[C@@H](CC(C)C)C(=O)N[C@H](C(=O)N[C@H](C(=O)NCC(=O)N[C@@H](CC(C)C)C(=O)N1CCC[C@H]1C(=O)N[C@@H](C)C(=O)N[C@@H](CC(C)C)C(=O)N[C@H](C(=O)N[C@@H](CO)C(=O)N[C@@H](Cc1c[nH]c2ccccc12)C(=O)N[C@H](C(=O)N[C@@H](CCCCN)C(=O)N[C@@H](CCCNC(=N)N)C(=O)N[C@@H](CCCCN)C(=O)N[C@@H](CCCNC(=N)N)C(=O)N[C@@H](CCC(N)=O)C(=O)N[C@@H](CCC(N)=O)C(N)=O)[C@@H](C)CC)[C@@H](C)CC)[C@@H](C)O)[C@@H](C)O)C(C)C)C(C)C [melittin, reference compound]
- effect on cell viability [2]: strong toxicity
- viability of cells ([2]; low dose (3.125 μM), 1 hour): significantly decreased
